{"source": "ChEMBL document CHEMBL1201862", "about": "“PubChem BioAssay data set” (2004)", "key": {"[1]": {"experiment": "NIH3T3 cell viability loss – ATP luminescence, mouse fibroblasts, counter-screen, dose response (AID 2010);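 note: cells exposed to compound for about 90 hours before reading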", "assay_type": "functional, cell-based"}, "[2]": {"experiment": "Trypanosoma cruzi growth suppression in host cells – NIH3T3 host cells, beta-gal luminescence, confirmation (AID 2044);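 note: intracellular parasites grown in NIH/3T3 mouse fibroblasts as host cells; luminescent beta-galactosidase reporter signal from transgenic T. cruzi replicating inside host cells; inhibitors lower the luminescence signal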", "assay_type": "functional, cell-based"}, "[3]": {"experiment": "Luminescence Cell-Based Secondary HTS screen to identify cytotoxic compounds of NIH3T3 cells. [Related pubchem assays: 1885, 1968 ]", "assay_type": "functional"}, "[4]": {"experiment": "T. cruzi infection blockers in NIH3T3 cells – beta-gal luminescence, NIH3T3 host cells, confirmation (AID 2630)", "assay_type": "functional, cell-based", "settings": "Mus musculus"}, "[5]": {"experiment": "anti-trypanosomal activity in BESM host cells – imaging, CA-I/72 strain, bovine embryo skeletal muscle, dry powder, dose response (AID 651885)", "assay_type": "functional, cell-based"}, "[6]": {"experiment": "Luminescence Cell-Based/Microorganism Confirmation at Dose of Inhibitors of Trypanosoma cruzi Infection. [Related pubchem assays: 1885, 1968 ]", "assay_type": "functional"}, "[7]": {"experiment": "T. cruzi growth inhibition in host cells, dose response, cell-based, plate reader, dry powder, set 2 (AID 652275)", "assay_type": "functional"}, "[8]": {"experiment": "NIH/3T3 cell viability loss – mouse embryonic fibroblasts, dry powder, set 2, cytotoxicity control, dose response (AID 493247)", "assay_type": "functional, cell-based", "settings": "Fibroblast"}, "Trypanosoma cruzi": {"tested_on": "Trypanosoma cruzi", "experiment": "anti-trypanosomal activity in host cells – cell-based, plate reader, dry powder, set 3, dose response (AID 493197)", "assay_type": "functional"}, "[9]": {"target": "T1, G-protein coupled receptor 55 (Homo sapiens, UniProt Q9Y2T6)", "T1 sequence (Q9Y2T6 whole entry)": "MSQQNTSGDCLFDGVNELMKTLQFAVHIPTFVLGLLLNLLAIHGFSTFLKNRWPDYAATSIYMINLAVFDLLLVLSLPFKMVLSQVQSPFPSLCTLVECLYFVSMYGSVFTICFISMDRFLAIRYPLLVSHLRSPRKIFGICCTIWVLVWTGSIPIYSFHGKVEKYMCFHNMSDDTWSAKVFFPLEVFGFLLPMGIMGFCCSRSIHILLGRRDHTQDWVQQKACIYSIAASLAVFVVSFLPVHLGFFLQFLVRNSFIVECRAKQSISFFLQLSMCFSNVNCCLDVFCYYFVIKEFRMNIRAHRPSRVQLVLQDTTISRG", "experiment": "inhibition of LPI-stimulated GPR55 beta-arrestin translocation – imaging, U2OS, beta-arrestin-GFP, LPI agonist, primary screen (AID 2013);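 note: antagonist potency measured as reduced agonist-driven arrestin aggregation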", "assay_type": "functional"}, "[10]": {"target": "T2, Kappa-type opioid receptor (Homo sapiens, UniProt P41145)", "T2 sequence (P41145 whole entry)": "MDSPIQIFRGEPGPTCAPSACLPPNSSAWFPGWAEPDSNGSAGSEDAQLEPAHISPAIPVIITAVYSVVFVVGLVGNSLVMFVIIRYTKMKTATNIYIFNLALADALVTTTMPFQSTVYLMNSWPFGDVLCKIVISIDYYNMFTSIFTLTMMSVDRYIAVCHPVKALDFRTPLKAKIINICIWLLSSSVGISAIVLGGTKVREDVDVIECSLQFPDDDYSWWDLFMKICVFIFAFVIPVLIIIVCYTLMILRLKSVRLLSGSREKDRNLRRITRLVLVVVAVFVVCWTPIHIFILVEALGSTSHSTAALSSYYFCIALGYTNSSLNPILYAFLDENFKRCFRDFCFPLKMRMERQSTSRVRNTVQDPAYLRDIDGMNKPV", "experiment": "kappa opioid receptor activation potency – imaging, image-based, SAR follow-up (AID 2359)", "assay_type": "functional"}, "[11]": {"target": "T3, Delta-type opioid receptor (Homo sapiens, UniProt P41143)", "T3 sequence (P41143 whole entry)": "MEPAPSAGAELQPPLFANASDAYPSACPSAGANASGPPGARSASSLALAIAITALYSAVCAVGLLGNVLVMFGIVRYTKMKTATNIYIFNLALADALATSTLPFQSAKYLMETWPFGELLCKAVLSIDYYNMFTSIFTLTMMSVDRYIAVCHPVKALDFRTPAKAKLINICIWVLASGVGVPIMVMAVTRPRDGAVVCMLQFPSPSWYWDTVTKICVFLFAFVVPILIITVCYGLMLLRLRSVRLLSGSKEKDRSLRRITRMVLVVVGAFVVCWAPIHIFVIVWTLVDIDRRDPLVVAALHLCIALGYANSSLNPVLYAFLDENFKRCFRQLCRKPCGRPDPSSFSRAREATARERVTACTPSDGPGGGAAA", "experiment": "HTS Image-Based Screen for Agonists of the DOR Receptor. [Related pubchem assays (depositor defined):AID1777, AID1786, AID2133]", "assay_type": "functional"}, "Mu-type opioid receptor [12]": {"target": "T4, Mu-type opioid receptor (Homo sapiens, UniProt P35372)", "T4 sequence (P35372 whole entry)": "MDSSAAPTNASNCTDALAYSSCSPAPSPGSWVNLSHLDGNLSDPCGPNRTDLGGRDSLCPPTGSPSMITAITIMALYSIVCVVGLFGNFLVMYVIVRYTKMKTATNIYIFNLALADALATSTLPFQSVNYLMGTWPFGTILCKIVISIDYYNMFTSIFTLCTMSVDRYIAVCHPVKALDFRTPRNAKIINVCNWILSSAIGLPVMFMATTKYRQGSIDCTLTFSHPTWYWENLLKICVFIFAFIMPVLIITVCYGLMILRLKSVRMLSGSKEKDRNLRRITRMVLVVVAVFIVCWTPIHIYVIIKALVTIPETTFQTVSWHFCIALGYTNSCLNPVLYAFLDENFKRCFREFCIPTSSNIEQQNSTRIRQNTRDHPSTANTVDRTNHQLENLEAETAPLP", "experiment": "HTS Image-Based Screen for Agonists of the MOR Receptor. [Related pubchem assays (depositor defined):AID1777, AID1785, AID1786, AID2133]", "assay_type": "functional"}, "[13]": {"target": "T2, Kappa-type opioid receptor", "assay_type": "functional"}, "[14]": {"target": "T2, Kappa-type opioid receptor", "experiment": "kappa opioid receptor blockers, cell-based, luminescence, beta-arrestin, SAR follow-up (AID 2285)", "assay_type": "functional"}, "Mu-type opioid receptor [15]": {"target": "T4, Mu-type opioid receptor", "experiment": "mu opioid receptor activators, image-based, SAR follow-up (AID 2352)", "assay_type": "functional"}, "[16]": {"target": "T3, Delta-type opioid receptor", "experiment": "SAR Analysis of Antagonists of the DOR Receptor using an Image-Based Assay - Set 3. [Related pubchem assays (depositor defined):AID1777, AID1785]", "assay_type": "functional"}, "Beta-galactosidase": {"target": "Beta-galactosidase (Escherichia coli, UniProt Q8VNN2)", "sequence (Q8VNN2 whole entry)": "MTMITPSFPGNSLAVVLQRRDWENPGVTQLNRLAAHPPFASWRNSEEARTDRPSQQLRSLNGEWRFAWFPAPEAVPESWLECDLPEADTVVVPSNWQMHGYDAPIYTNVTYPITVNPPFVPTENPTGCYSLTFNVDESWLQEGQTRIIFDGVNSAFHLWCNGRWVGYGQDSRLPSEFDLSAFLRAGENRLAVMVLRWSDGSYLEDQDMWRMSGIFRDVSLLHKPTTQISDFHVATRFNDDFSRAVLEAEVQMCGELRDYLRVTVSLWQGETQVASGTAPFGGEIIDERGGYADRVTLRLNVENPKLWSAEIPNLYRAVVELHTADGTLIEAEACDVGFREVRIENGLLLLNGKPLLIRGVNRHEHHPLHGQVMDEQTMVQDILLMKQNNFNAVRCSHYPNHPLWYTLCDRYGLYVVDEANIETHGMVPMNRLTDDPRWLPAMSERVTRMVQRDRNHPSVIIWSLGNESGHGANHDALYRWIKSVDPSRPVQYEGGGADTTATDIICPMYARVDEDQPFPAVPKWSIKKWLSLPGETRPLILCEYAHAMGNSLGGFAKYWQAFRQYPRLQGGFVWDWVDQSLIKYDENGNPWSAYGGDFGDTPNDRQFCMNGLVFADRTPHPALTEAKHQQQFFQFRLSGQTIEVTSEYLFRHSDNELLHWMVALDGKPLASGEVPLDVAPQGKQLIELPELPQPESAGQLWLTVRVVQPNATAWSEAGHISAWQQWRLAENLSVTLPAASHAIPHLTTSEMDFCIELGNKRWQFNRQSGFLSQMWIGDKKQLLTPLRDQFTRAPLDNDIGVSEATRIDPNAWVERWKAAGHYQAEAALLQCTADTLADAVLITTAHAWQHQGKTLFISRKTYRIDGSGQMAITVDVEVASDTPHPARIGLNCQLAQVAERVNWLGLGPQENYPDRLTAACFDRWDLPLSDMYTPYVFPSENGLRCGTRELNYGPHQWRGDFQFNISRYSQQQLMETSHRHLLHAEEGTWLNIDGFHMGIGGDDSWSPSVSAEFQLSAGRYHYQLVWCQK", "assay_type": "functional"}, "[17]": {"target": "T3, Delta-type opioid receptor", "experiment": "DOR agonists, SAR follow-up, image-based (AID 2370)", "assay_type": "functional"}, "Mu-type opioid receptor [18]": {"target": "T4, Mu-type opioid receptor", "experiment": "SAR Analysis of Antagonists of the MOR Receptor using an Image-Based Assay - Set 3. [Related pubchem assays (depositor defined):AID1777, AID1785, AID1786, AID1966, AID2133, AID2136, AID2284, AID2285, AID2420]", "assay_type": "functional"}, "[19]": {"target": "T2, Kappa-type opioid receptor", "experiment": "SAR analysis of small molecule antagonists of the kappa opioid receptor via a luminescent beta-arrestin assay - Set 3. [Related pubchem assays (depositor defined):AID1777, AID1778, AID1785, AID1786, AID1966, AID2133, AID2136, AID2285, AID2495]", "assay_type": "functional"}, "Mu-type opioid receptor [20]": {"target": "T4, Mu-type opioid receptor", "experiment": "mu opioid receptor blockers – image-based, SAR follow-up (AID 2420);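 note: compounds added before stimulation of receptor with agonist DAMGO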", "assay_type": "functional"}, "[21]": {"target": "T2, Kappa-type opioid receptor", "experiment": "SAR analysis of Antagonists of the Kappa Opioid Receptor (KOR) using an Image-Based Assay - Set 4. [Related pubchem assays (depositor defined):AID1777, AID1785]", "assay_type": "functional"}, "[22]": {"target": "T2, Kappa-type opioid receptor", "experiment": "SAR analysis of Antagonists of the Kappa Opioid Receptor (KOR) using an Image-Based Assay - Set 3. [Related pubchem assays (depositor defined):AID1777, AID1785]", "assay_type": "functional"}, "[23]": {"target": "T2, Kappa-type opioid receptor", "assay_type": "functional", "remark": "listed apart in the source"}, "[24]": {"target": "T3, Delta-type opioid receptor", "experiment": "HTS Image-Based Screen for Antagonists of the DOR Receptor. [Related pubchem assays (depositor defined):AID1777, AID1785, AID1786, AID2133]", "assay_type": "functional"}, "[25]": {"target": "T3, Delta-type opioid receptor", "experiment": "delta opioid receptor blockers – image-based, SAR follow-up (AID 2357)", "assay_type": "functional"}, "[26]": {"target": "T2, Kappa-type opioid receptor", "experiment": "kappa opioid receptor blockers, image-based, SAR follow-up (AID 2348)", "assay_type": "functional"}, "[27]": {"target": "T1, G-protein coupled receptor 55", "experiment": "selective activators of receptor GPR55 – imaging, U2OS cells, beta-arrestin-GFP redistribution, primary screen (AID 1961)", "assay_type": "functional"}, "[28]": {"target": "DNA damage-inducible transcript 3 protein (Mus musculus, UniProt P35639)", "sequence (P35639 whole entry)": "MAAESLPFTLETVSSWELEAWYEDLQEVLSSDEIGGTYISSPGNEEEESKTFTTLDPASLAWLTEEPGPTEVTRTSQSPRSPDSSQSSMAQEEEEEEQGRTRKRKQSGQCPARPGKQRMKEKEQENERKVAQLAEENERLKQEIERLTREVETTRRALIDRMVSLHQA", "assay_type": "functional, Cricetulus griseus"}}, "note": "Values joined by “and” are separate entries in the source; they are usually repeats but may differ in a detail not shown here. Equal entries are not always repeated. Active and inactive are the calls of the source.", "data": [{"smiles": "COc1ccc(CCN(C)C(=O)C2CCCN(Cc3ccc(OC)c(OC)c3)C2)cc1OC", "note": "(stereo not given)", "values": [{"measurement": "EC50", "setting": "[1]", "value": "> 60 µM (not active)"}, {"measurement": "EC50", "setting": "[2]", "value": "< 0.1 µM (active)"}, {"measurement": "EC50", "setting": "[3]", "value": "> 195 µM (not active)"}, {"measurement": "EC50", "setting": "[4]", "value": "0.192 µM (active)"}, {"measurement": "IC50", "setting": "[5]", "value": "> 20 µM (inactive)"}, {"measurement": "EC50", "setting": "[6]", "value": "0.192 µM (active)"}, {"measurement": "AC50", "setting": "[7]", "value": "0.252 µM (active)"}, {"measurement": "AC50", "setting": "[8]", "value": "80.4 µM (active)"}, {"measurement": "AC50", "setting": "Trypanosoma cruzi", "value": "0.26 µM (active)"}]}, {"smiles": "C=CCN1C(=O)/C(=C/Nc2ccc(Cc3ccncc3)cc2)C(=O)NC1=S", "values": [{"measurement": "IC50", "setting": "[9]", "value": "0.543 µM (active)"}]}, {"smiles": "COc1ccc(N2CCN(CCCNC(=O)Cn3c(=O)c4cccn4c4cccnc43)CC2)cc1", "values": [{"measurement": "EC50", "setting": "[10]", "value": "> 32 µM (inactive)"}, {"measurement": "EC50", "setting": "[11]", "value": "> 32 µM (inactive)"}, {"measurement": "EC50", "setting": "Mu-type opioid receptor [12]", "value": "> 32 µM (inactive)"}, {"measurement": "IC50", "setting": "[13]", "value": 1.32, "unit": "µM"}, {"measurement": "IC50", "setting": "[14]", "value": "1.67 µM (active)"}, {"measurement": "EC50", "setting": "Mu-type opioid receptor [15]", "value": "> 32 µM (inactive)"}, {"measurement": "IC50", "setting": "[16]", "value": "> 32 µM (inactive)"}, {"measurement": "EC50", "setting": "Beta-galactosidase", "value": "> 31.5 µM (inactive)"}, {"measurement": "EC50", "setting": "[17]", "value": "> 32 µM (inactive)"}, {"measurement": "IC50", "setting": "Mu-type opioid receptor [18]", "value": "> 32 µM (inactive)"}, {"measurement": "IC50", "setting": "[19]", "value": "1.07 µM (active) and 3.05 µM (active)"}, {"measurement": "IC50", "setting": "Mu-type opioid receptor [20]", "value": "> 32 µM (inactive)"}, {"measurement": "IC50", "setting": "[21]", "value": "0.205 µM (active)"}, {"measurement": "IC50", "setting": "[22]", "value": "243 nM (active) and 670 nM (active)"}, {"measurement": "IC50", "setting": "[23]", "value": "2.17 µM (active)"}, {"measurement": "IC50", "setting": "[24]", "value": "> 32 µM (inactive)"}, {"measurement": "IC50", "setting": "[25]", "value": "> 32 µM (inactive)"}, {"measurement": "IC50", "setting": "[26]", "value": "4.14 µM (active)"}]}, {"smiles": "CN1CCN(c2nc(Nc3ccccc3)nc(N)c2[N+](=O)[O-])CC1", "values": [{"measurement": "EC50", "setting": "[27]", "value": "10.7 µM (inactive)"}]}, {"smiles": "CCOC(=O)c1c(CN2CCOCC2)n(-c2ccccc2)c2cc(Br)c(O)cc12.Cl", "values": [{"measurement": "Absolute IC50 (CHOP)", "setting": "[28]", "value": 10, "unit": "µM"}]}]}
